pEC50: −log10 of the molar value.
molecular target: T1, human FFAR1 (GPR40) (Homo sapiens, UniProt O14842); assay: NFAT-RE-based reporter gene activity assay (Dual-Glo luciferase) for GPR40 agonistic activity in co-transfected HEK293T cells; format: cell-based; settings: 4-hour treatment
T1 construct: Flag; expressed in transfected cells; host or cells: HEK293T
Excerpt: The pcDNA3.0-flag-FFAR1 (GPR40) plasmid was constructed using conventional molecular cloning methods. The main steps were as follows: The full-length cDNA sequence of human FFAR1 (GPR40) (NM_005303.3) was inserted into the HindIII and XbaI restriction sites of the pcDNA3.0 vector via PCR technology, resulting in the pcDNA3.0-flag-FFAR1 (GPR40) plasmid; pGL4.30 [luc2P NFAT-RE] (# E8481) and pRL-TK (#E2241) plasmids were both purchased from Promega; the plasmids were transformed into DH5α E. coli using the CaCl2 method, further cultured and amplified, and then purified using a plasmid extraction kit (TIANGEN, # DP117) to obtain the corresponding plasmid DNA.
HEK293T cells were seeded in a 96-well plate at a density of 1 × 10^4/well one day prior to plasmid transfection. Cell transfection was performed according to the instructions of the transfection reagent FuGENE® HD (Promega, # E2311). The main steps were as follows: Taking one well as an example, plasmids pcDNA3.0-flag-FFAR1 (GPR40), pGL4.30 [luc2P NFAT-RE], and pRL-TK were added at ratios of 50 ng, 50 ng, and 5 ng, respectively, into 10 µL of Opti-MEM™ I medium (Gibco, #11058021) and mixed thoroughly; then, 0.2 µL of FuGENE® HD was added, mixed thoroughly, and allowed to stand at room temperature for 5 minutes; finally, this 10 µL mixture was added to the cell well containing 100 µL of culture medium. 24 hours after co-transfection, the compounds were serially diluted at half-logarithmic intervals with 1 µM as the highest concentration, resulting in 10 concentration gradients, which were added to the cell culture medium for a 4-hour treatment.
After 4 hours of compound treatment, the cells were assayed according to the instructions of the Dual-Glo® Luciferase Assay System (Promega, # E2940). The main steps were as follows: 50 µL of culture medium was aspirated from each well and discarded, followed by the addition of 50 µL of Dual-Glo® Luciferase Reagent, and the mixture was shaken at room temperature for 10 minutes. Then, 80 µL of the lysate reaction solution was transferred to a white opaque optiPlate-96 well plate, and the luminescence signal of Firefly luciferase (Firefly-Luc) was measured using an MD i3x multifunctional microplate reader. Subsequently, 40 µL of Dual-Glo® Stop & Glo® Reagent was added, and the mixture was shaken at room temperature for 10 minutes. Finally, the luminescence signal of Renilla luciferase (Renilla-Luc) was measured using the MD i3x multifunctional microplate reader. The ratio of Firefly-Luc/Renilla-Luc was used as the compound's agonistic activity toward GPR40, and normalization was performed using the ratio of the solvent DMSO group. A dose-response curve was fitted using a four-parameter model with GraphPad Prism 8.0 software to calculate the EC50 value.

T1 sequence (O14842 whole entry): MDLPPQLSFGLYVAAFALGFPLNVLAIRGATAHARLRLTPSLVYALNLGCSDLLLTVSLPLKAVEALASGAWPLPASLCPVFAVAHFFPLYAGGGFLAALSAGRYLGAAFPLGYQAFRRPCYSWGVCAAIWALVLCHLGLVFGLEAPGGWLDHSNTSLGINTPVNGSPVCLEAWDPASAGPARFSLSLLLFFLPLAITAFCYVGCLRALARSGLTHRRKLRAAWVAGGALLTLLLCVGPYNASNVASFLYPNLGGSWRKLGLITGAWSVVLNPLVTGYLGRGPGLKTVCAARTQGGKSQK

SMILES	pEC50
CCCCC[C@H]1CC[C@H](c2nnc(-c3c(C4CCN(c5cccc(OC)c5)CC4)oc4cc(C(CC(=O)O)C5CC5)ccc34)o2)CC1 (relative stereo) [Compound 138]	6.30 to 7.00
COc1ccc(F)c(N2CCC(c3cc4ccc(C(CC(=O)O)C5CC5)cc4o3)CC2)c1 (stereo not shown) [Comparative Example 1, reference compound]	< 6.00
CN1CCC(c2oc3cc(C(CC(=O)O)C4CC4)ccc3c2-c2cccc(C(C)(C)C)c2)CC1 (stereo not shown) [Compound 1]	< 6.00
CC(C)(C)c1cccc(-c2c(-c3ccccc3)oc3cc(C(CC(=O)O)C4CC4)ccc23)c1 (stereo not shown) [Compound 2]	< 6.30
Cc1ccc(N2CCC(c3oc4cc(C(CC(=O)O)C5CC5)ccc4c3-c3cccc(C(C)(C)C)c3)CC2)cc1 (stereo not shown) [Compound 3]	6.30 to 7.00
Cc1cccc(N2CCC(c3oc4cc(C(CC(=O)O)C5CC5)ccc4c3-c3cccc(C(C)(C)C)c3)CC2)c1 (stereo not shown) [Compound 4]	6.30 to 7.00
Cc1ccccc1N1CCC(c2oc3cc(C(CC(=O)O)C4CC4)ccc3c2-c2cccc(C(C)(C)C)c2)CC1 (stereo not shown) [Compound 5]	6.30 to 7.00
CCc1cccc(N2CCC(c3oc4cc(C(CC(=O)O)C5CC5)ccc4c3-c3ccc(C(C)(C)C)cc3)CC2)c1 (stereo not shown) [Compound 6]	< 6.30
CC(C)(C)c1cccc(-c2c(C3CCN(c4ccc(F)cc4)CC3)oc3cc(C(CC(=O)O)C4CC4)ccc23)c1 (stereo not shown) [Compound 7]	6.30 to 7.00
CC(C)(C)c1cccc(-c2c(C3CCN(c4cccc(F)c4)CC3)oc3cc(C(CC(=O)O)C4CC4)ccc23)c1 (stereo not shown) [Compound 8]	< 6.30
CC(C)(C)c1cccc(-c2c(C3CCN(c4ccccc4F)CC3)oc3cc(C(CC(=O)O)C4CC4)ccc23)c1 (stereo not shown) [Compound 9]	6.30 to 7.00
COc1ccc(N2CCC(c3oc4cc(C(CC(=O)O)C5CC5)ccc4c3-c3cccc(C(C)(C)C)c3)CC2)cc1 (stereo not shown) [Compound 10]	6.30 to 7.00
COc1cccc(N2CCC(c3oc4cc(C(CC(=O)O)C5CC5)ccc4c3-c3cccc(C(C)(C)C)c3)CC2)c1 (stereo not shown) [Compound 11]	7.00 to 8.00
COc1cccc(N2CCC(c3oc4cc(C(CC(=O)O)C5CC5)ccc4c3-c3ccc(C(C)(C)C)cc3)CC2)c1 (stereo not shown) [Compound 13]	6.30 to 7.00
CCOc1cccc(N2CCC(c3oc4cc(C(CC(=O)O)C5CC5)ccc4c3-c3ccc(C(C)(C)C)cc3)CC2)c1 (stereo not shown) [Compound 15]	6.30 to 7.00
CC(C)(C)c1cccc(-c2c(C3CCN(c4cccc(C(F)(F)F)c4)CC3)oc3cc(C(CC(=O)O)C4CC4)ccc23)c1 (stereo not shown) [Compound 20]	6.30 to 7.00
COc1ccccc1N1CCC(c2oc3cc(C(CC(=O)O)C4CC4)ccc3c2-c2cccc(C(C)(C)C)c2)CC1 (stereo not shown) [Compound 21]	6.30 to 7.00
CC(C)(C)c1cccc(-c2c(C3CCN(c4ccccc4Cl)CC3)oc3cc(C(CC(=O)O)C4CC4)ccc23)c1 (stereo not shown) [Compound 22]	6.30 to 7.00
CC(C)(C)c1cccc(-c2c(C3CCN(c4ccccc4OC(F)(F)F)CC3)oc3cc(C(CC(=O)O)C4CC4)ccc23)c1 (stereo not shown) [Compound 23]	6.30 to 7.00
CNc1cccc(N2CCC(c3oc4cc(C(CC(=O)O)C5CC5)ccc4c3-c3ccc(C(C)(C)C)cc3)CC2)c1 (stereo not shown) [Compound 24]	6.30 to 7.00

same assay, conditions: 4-hour treatment, class symbols

SMILES	Efficacy (%)
CCCCC[C@H]1CC[C@H](c2nnc(-c3c(C4CCN(c5cccc(OC)c5)CC4)oc4cc(C(CC(=O)O)C5CC5)ccc34)o2)CC1 (relative stereo) [Compound 138]	†† (150 ≥ Efficacy (%) > 100)
COc1ccc(F)c(N2CCC(c3cc4ccc(C(CC(=O)O)C5CC5)cc4o3)CC2)c1 (stereo not shown) [Comparative Example 1, reference compound]	NA (NA indicates no activity)
CN1CCC(c2oc3cc(C(CC(=O)O)C4CC4)ccc3c2-c2cccc(C(C)(C)C)c2)CC1 (stereo not shown) [Compound 1]	† (100 ≥ Efficacy (%) > 50)
CC(C)(C)c1cccc(-c2c(-c3ccccc3)oc3cc(C(CC(=O)O)C4CC4)ccc23)c1 (stereo not shown) [Compound 2]	†† (150 ≥ Efficacy (%) > 100)
Cc1ccc(N2CCC(c3oc4cc(C(CC(=O)O)C5CC5)ccc4c3-c3cccc(C(C)(C)C)c3)CC2)cc1 (stereo not shown) [Compound 3]	†† (150 ≥ Efficacy (%) > 100)
Cc1cccc(N2CCC(c3oc4cc(C(CC(=O)O)C5CC5)ccc4c3-c3cccc(C(C)(C)C)c3)CC2)c1 (stereo not shown) [Compound 4]	† (100 ≥ Efficacy (%) > 50)
Cc1ccccc1N1CCC(c2oc3cc(C(CC(=O)O)C4CC4)ccc3c2-c2cccc(C(C)(C)C)c2)CC1 (stereo not shown) [Compound 5]	††† (Efficacy (%) > 150)
CCc1cccc(N2CCC(c3oc4cc(C(CC(=O)O)C5CC5)ccc4c3-c3ccc(C(C)(C)C)cc3)CC2)c1 (stereo not shown) [Compound 6]	†† (150 ≥ Efficacy (%) > 100)
CC(C)(C)c1cccc(-c2c(C3CCN(c4ccc(F)cc4)CC3)oc3cc(C(CC(=O)O)C4CC4)ccc23)c1 (stereo not shown) [Compound 7]	†† (150 ≥ Efficacy (%) > 100)
CC(C)(C)c1cccc(-c2c(C3CCN(c4cccc(F)c4)CC3)oc3cc(C(CC(=O)O)C4CC4)ccc23)c1 (stereo not shown) [Compound 8]	†† (150 ≥ Efficacy (%) > 100)
CC(C)(C)c1cccc(-c2c(C3CCN(c4ccccc4F)CC3)oc3cc(C(CC(=O)O)C4CC4)ccc23)c1 (stereo not shown) [Compound 9]	†† (150 ≥ Efficacy (%) > 100)
COc1ccc(N2CCC(c3oc4cc(C(CC(=O)O)C5CC5)ccc4c3-c3cccc(C(C)(C)C)c3)CC2)cc1 (stereo not shown) [Compound 10]	†† (150 ≥ Efficacy (%) > 100)
COc1cccc(N2CCC(c3oc4cc(C(CC(=O)O)C5CC5)ccc4c3-c3cccc(C(C)(C)C)c3)CC2)c1 (stereo not shown) [Compound 11]	††† (Efficacy (%) > 150)
COc1cccc(N2CCC(c3oc4cc(C(CC(=O)O)C5CC5)ccc4c3-c3ccc(C(C)(C)C)cc3)CC2)c1 (stereo not shown) [Compound 13]	††† (Efficacy (%) > 150)
CCOc1cccc(N2CCC(c3oc4cc(C(CC(=O)O)C5CC5)ccc4c3-c3ccc(C(C)(C)C)cc3)CC2)c1 (stereo not shown) [Compound 15]	††† (Efficacy (%) > 150)
CC(C)(C)c1cccc(-c2c(C3CCN(c4cccc(C(F)(F)F)c4)CC3)oc3cc(C(CC(=O)O)C4CC4)ccc23)c1 (stereo not shown) [Compound 20]	†† (150 ≥ Efficacy (%) > 100)
COc1ccccc1N1CCC(c2oc3cc(C(CC(=O)O)C4CC4)ccc3c2-c2cccc(C(C)(C)C)c2)CC1 (stereo not shown) [Compound 21]	†† (150 ≥ Efficacy (%) > 100)
CC(C)(C)c1cccc(-c2c(C3CCN(c4ccccc4Cl)CC3)oc3cc(C(CC(=O)O)C4CC4)ccc23)c1 (stereo not shown) [Compound 22]	†† (150 ≥ Efficacy (%) > 100)
CC(C)(C)c1cccc(-c2c(C3CCN(c4ccccc4OC(F)(F)F)CC3)oc3cc(C(CC(=O)O)C4CC4)ccc23)c1 (stereo not shown) [Compound 23]	†† (150 ≥ Efficacy (%) > 100)
CNc1cccc(N2CCC(c3oc4cc(C(CC(=O)O)C5CC5)ccc4c3-c3ccc(C(C)(C)C)cc3)CC2)c1 (stereo not shown) [Compound 24]	† (100 ≥ Efficacy (%) > 50)
